According to patent publication US20240239765A1, “GLYCINE N-METHYLTRANSFERASE SPECIFIC ENHANCER AND PREPARATION METHOD AND USES THEREOF” (KAOHSIUNG MEDICAL UNIVERSITY, priority 2020, published 2024):
Blank lines part the entries; values can stand above or below the compound they belong to.

Columns and labels:
Huh7 xenograft tumor = assay type: in vivo
Excerpt: (§1) All animal experiments were reviewed and approved by the Institutional Animal Care and Use Committee of Kaohsiung Medical University, and performed in accordance with relevant guidelines. Five to six-week-old male NOD-SCID mice were subcutaneously injected with Huh7 cells (1×10^6) in the right flank. Upon detection of palpable tumor, mice were randomly grouped and treated with 300 mpk, 100 mpk or 25 mpk of LKY4606D or KYT5397 and drug vehicle orally every day for 28 days. For K117, doses of 10 mpk and 25 mpk were used. For Sorafenib, dose of 25 mpk was used. Tumor growth was monitored (every day or three times per week) by measuring the length (L) and the width (W) of the tumor using Vernier caliper. Tumor volume (TV) was calculated by using the formula: volume=(L×W^2)/2. All drugs were dissolved in 0.5% carboxymethyl cellulose sodium salt.

p27 mRNA = p27 mRNA expression in Huh7 cells (qRT-PCR); assay type: cell-based, Human; settings: after K117 treatment
Method: (§2) RNA was isolated by using Trizol reagent (Life Technologies) according to the manufacturer's protocol. Cellular RNA was reverse transcribed into complementary DNA using a SuperScript II RNase H-Reverse Transcriptase Kit (Life Technologies). PCR reactions were carried out using a Super Script II Reverse Transcriptase Kit (Invitrogen Inc., Carlsbad, CA, USA) on an Applied Biosystems Step-One-plus real-time PCR system (Applied Biosystems, Foster City, CA, USA). The mRNA level of TATA-box binding protein (TBP) was used as an internal control. The primer pairs used for qRT-PCR were: • TBP forward: SEQ ID NO: 1, • reverse: SEQ ID NO: 2, • MYC forward: SEQ ID NO: 3, • reverse: SEQ ID NO: 4, • p21 forward: SEQ ID NO: 5, • reverse: SEQ ID NO: 6, • p27 forward: SEQ ID NO: 7, • reverse: SEQ ID NO: 8, • GNMT forward: SEQ ID NO: 9, and • reverse: SEQ ID NO: 10.

[1] = tested on: −1812/+14 GNMT promoter-luciferase reporter cell line H7GPL; assay: GNMT induction capacity assay (GNMT promoter-luciferase reporter, H7GPL cells); assay type: cell-based, Human; settings: for Relative Luciferase Activity (induction capacity): H7GPL cells
Method: A −1812/+14 GNMT promoter-luciferase reporter cell line H7GPL was constructed. For the primary analysis, H7GPL cells seeded in 96-well plates were treated with individual drugs of 10 μM for 24 hours and then were lysed for the luciferase activity assay using Luciferase Assay System (Promega, Madison, WI, USA). Then, the secondary analysis was performed using the compounds with different doses. The same confirmed hits were used for cytotoxicity by using alamarBlue® reagent (AbD serotec, Oxford, UK). The cytotoxicity was measured according to the manufacturer's recommendation. Top hits were used for further studies.

PANC1 = assay: Cell viability, pancreatic cancer cell line PANC1; assay type: cell-based; settings: Homo sapiens, PANC-1; PANC1, pancreas
Method: (§3) Human liver cancer cell lines (Huh7 and HepG2), human pancreatic cancer cell line (PANC1) and prostate cancer cell line (PC3) were cultured in Dulbecco's modified Eagle's medium (DMEM) supplemented with 10% fetal bovine serum (FBS) (HyClone, Logan, UT, USA), L-glutamine (2 mM), streptomycin (100 μg/mL), penicillin (100 U/mL) and nonessential amino acids (0.1 mM). Human pancreatic cancer cell line BxPC3 was cultured in the medium of Roswell Park Memorial Institute (RPMI) 1640 with the same supplements as in DMEM. All cell lines were maintained at 37 °C in a humidified CO2 incubator. H7GPL stable cells established by lentiviral-system was grown in DMEM supplemented with 1 μg/mL puromycin. The sorafenib were purchased from Sigma-Aldrich (St Louis, MO, USA).
(§4) Huh7, HepG2, PANC1, PC3, and BxPC3 cells were seeded in 96-well plates for 24 hours and exposed to the drugs with various concentrations. AlamarBlue® was added in to the cells and further incubated for 4 hours to assess the cytotoxic effect of the tested drugs. Blank wells (without cells) containing the same amount of test substances were used for background subtraction, and the relative number of viable cells were represented as the percentage of the mean of the relative solvent controls. AlamarBlue® assay (AbD Serotec, Oxford, UK) was used to assess cell viability according to the manufacturer's instructions.

BxPC3 = assay: Cell viability, pancreatic cancer cell line BxPC3; assay type: cell-based; settings: Homo sapiens, BXPC-3; BxPC3, pancreas
Method: as §3, §4

DU145 = assay: Cell viability, prostate cancer cell line DU145; assay type: cell-based; settings: Homo sapiens, DU-145
MYC protein = MYC protein in Huh7 xenograft tumors (immunoblotting); assay type: in vivo; settings: Huh7 xenograft tumors of treated mice
Method: (§5) Cells or xenograft tumors were harvested for lysate preparation by using RIPA buffer containing protease inhibitor cocktail (Roche Molecular Biochemicals) and phosphatase inhibitors (10 mM Na3VO4, 1 mM NaF, 5 mM NaPPi). Protein concentrations were quantified by Bio-Rad Protein Assay (Bio-Rad) and immunoblotting was carried out as previous description (Yen et al., 2012). Anti-MYC (D84C12, Cell Signaling Technology), anti-GNMT (YMAC-Bioteck) and anti-β-actin (AC-15, Sigma-Aldrich) antibodies were used according to the descriptions in manufacturer's instructions.
as §1, with “All drugs were dissolved in 0.5% carboxymethyl cellulose sodium salt.” left out

[2] = tested on: liver cancer cell lines (Huh7, Hep3B, HepG2); assay: Cell proliferation in liver cancer cell lines; assay type: cell-based, Human
Method: as §4

MYC mRNA = MYC mRNA expression in Huh7 cells (qRT-PCR); assay type: cell-based, Human
Method: as §2

Huh7 and HepG2 cells = assay: Colony formation assay; assay type: cell-based, Human
GNMT mRNA = assay: Endogenous GNMT mRNA in Huh7 cells (qRT-PCR); assay type: cell-based, Human
Method: as §2

p21 mRNA = p21 mRNA expression in Huh7 cells (qRT-PCR); assay type: cell-based, Human; settings: after K117 treatment
Method: as §2

PC3 = assay: Cell viability, prostate cancer cell line PC3; assay type: cell-based; settings: Homo sapiens, PC-3
Method: as §3, §4

GNMT protein = assay: Endogenous GNMT protein in Huh7 cells (immunoblotting); assay type: cell-based, Human
Method: as §5

GNMT expression / MYC = settings: pathogenesis of liver cancer, known; cited from earlier work

IC50 (PANC1): 2.2 µM
IC50 (BxPC3): 1.2 µM
IC50 (DU145): 40.8 µM
IC50 (PC3): 15.3 µM
Compound: C/C(=N\NC(=O)c1cccnc1N)c1ccccn1 [K117, N′-(1-(pyridin-2-yl)ethylidene)-2-carbohydrazide]
Tumor growth versus control group (Huh7 xenograft tumor; K117 10 mpk and 25 mpk): significant tumor growth reduction
Tumor growth effect compared with Sorafenib (Huh7 xenograft tumor; K117 10 mpk vs Sorafenib 25 mpk): same effect as Sorafenib 25 mpk
p27 mRNA expression (p27 mRNA): increased
Relative Luciferase Activity (induction capacity) ([1]; 5.0 μM): 6.52 ± 0.12
Relative Luciferase Activity (induction capacity) ([1]; 10 μM): 10.36 ± 0.35
Induction of GNMT expression compared with K78 ([1]; SAR study): more effective than K78
Induction of luciferase activity / GNMT promoter activity ([1]; dose response (FIG. 2B, 4B)): induced GNMT promoter activity in a dose-dependent manner
MYC protein expression in xenograft tumors (MYC protein): reduced
Proliferation of liver cancer cells [2]: inhibited proliferation of all tested liver cancer cells in a dose-dependent manner
MYC mRNA expression (MYC mRNA): suppressed c-Myc mRNA expression dose-dependently
Colony formation (Huh7 and HepG2 cells): reduced the colony formation of Huh7 and HepG2 cells in a dose-dependent manner
Endogenous GNMT expression at mRNA level (GNMT mRNA): induced
p21 mRNA expression (p21 mRNA): increased
Endogenous GNMT expression at protein level (GNMT protein): induced

Compound: O=C(OC[C@H]1O[C@@H](OC(=O)c2cc(O)c(O)c(O)c2)[C@H](OC(=O)c2cc(O)c(O)c(O)c2)[C@@H](OC(=O)c2cc(O)c(O)c(O)c2)[C@@H]1OC(=O)c1cc(O)c(O)c(O)c1)c1cc(O)c(O)c(O)c1 [PGG, 1,2,3,4,6-penta-O-galloyl-Beta-D-glucopyranoside]
GNMT expression / MYC regulation (GNMT expression / MYC): enhanced GNMT expression through MYC downregulation

Compound: CNC(=O)c1cc(Oc2ccc(NC(=O)Nc3ccc(Cl)c(C(F)(F)F)c3)cc2)ccn1 [Sorafenib, sorafenib, reference compound]
Tumor growth versus solvent control (Huh7 xenograft tumor; oral, K78 25, 100, 300 mpk, sorafenib comparison control): most significant difference
